Laboratory results reported in PubChem BioAssay AID1963986 (Molecular Pharmacology Branch, DTP, NCI, 2024).
Several values for one entry are separate records, joined by “and”; a condition that tells them apart may be missing. Equal values may be shown once.

Test system: 171881-019-R-J1-PDC tumor spheroid viability
Experiment: Anticancer human tumor 171881-019-R-J1-PDC patient-derived invasive breast carcinoma cell line growth inhibition [PI3K]
Conditions: spheroids with HUVEC and MSC; for viability, T/C: stronger effect = lower value
Excerpt: Combinatorial screen of targeted agents with the PI3K inhibitors inavolisib, alpelisib, duvelisib, and copanlisib in multi-cell type tumor spheroids
A high-throughput screen of multi-cell type tumor spheroids was designed to identify active combinations of targeted small molecules and PI3K pathway inhibitors. Complex spheroids include a stromal component modeled by human endothelial cells (HUVEC) and fibroblasts modeled by human mesenchymal stem cells (MSCs). The concentration ranges selected for each drug and investigational agent were based upon clinically achievable concentrations if the clinical Cmax of the agent was known.
Compounds. The drugs and investigational agents: inavolisib (NSC800729), alpelisib (NSC765974), duvelisib (NSC772469), copanlisib (NSC816437), ipatasertib (NSC767898), afuresertib (NSC778305), talazoparib (NSC767125), sapanisertib (NSC764658), selumetinib (NSC741078), tovorafenib (DAY101, NSC766906), vemurafenib (NSC761431), ravoxertinib (NSC781343), sotorasib (NSC818433), MRTX1133 (NSC 836407), abemaciclib (NSC 768073), palbociclib (NSC758247), venetoclax (NSC 766270), SY5609 (NSC837396), enzalutamide (NSC755605), and darolutamide (NSC825331), were obtained from the National Cancer Institute (NCI) Developmental Therapeutics Program Chemical Repository. The FDA-approved anticancer drug set is available from the NCI Developmental Therapeutics Program. […] The stock solutions were prepared in dimethyl sulfoxide (DMSO, Sigma-Aldrich, St. Louis, MO, cat. D2650) at 800-fold the tested concentration and stored at -70 degrees C prior to their use. All drugs and investigational agents were tested over a range starting from a high concentration at or near the clinical Cmax and decreasing in half-log increments. If the clinical Cmax for an agent had not been determined, the highest concentration tested was 10 microM.
Cell Culture. All cells were maintained in an incubator at 37 degrees C and 5% CO2 with 95% humidity. The PDC lines were cultured according to standard operating procedures established by the NCI PDMR (https://pdmr.cancer.gov/sops/default.htm). All PDCs were thawed and cultured in Matrigel-coated flasks prepared with a working solution of 1X Ham's F-12 nutrient mix, without supplementation (Invitrogen, Waltham, MA, cat. 11765054), 100 U/mL penicillin-streptomycin (Invitrogen, cat. 15140122), and 2.5% Matrigel (Corning Inc., Corning, NY, cat. 354248) for the first three passages. The 354836-022-R-J1-PDC, 475296-252-R-J1-PDC, and 997726-040-R-J2-PDC lines were cultured in 6A media, which includes advanced DMEM/F-12 (Thermo Fisher Scientific, cat. 12634028), 10 mM HEPES (Thermo Fisher Scientific, cat. 15630080), 1X GlutaMAX supplement (Thermo Fisher Scientific, cat. 35050061), 0.1 mg/mL primocin (InvivoGen, San Diego, CA, cat. ant-pm-2), 10% defined fetal bovine serum, heat inactivated (HyClone Laboratories Inc., Logan, UT, cat. SH30070.03HI), 50% L-WRN conditioned media (ATCC, cat. CRL-3276), 1.25 mM N-Acetyl-L-cysteine (Sigma-Aldrich, cat. A9165), 10 mM nicotinamide (Sigma-Aldrich, cat. N0636), 1X B-27 supplement (Thermo Fisher Scientific, cat. 17504044), 1X N-2 supplement (Thermo Fisher Scientific, cat. 17502048), and 10 microM Y-27632 dihydrochloride (Tocris Bioscience, Bristol, United Kingdom, cat. 1254). The 624824-186-R-J2-PDC line was cultured in 6C/Colon 1B media, which includes all 6A media components plus 50 ng/mL human EGF recombinant protein (Thermo Fisher Scientific, cat. PHG0311). […]

[1] = compound alone, run of 05/08/2023
[2] = compound alone, run of 05/09/2023
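Also: spheroids exposed to compound for 7 days before viability read.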
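For viability, T/C in this document: 100% = DMSO vehicle-treated spheroids.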

| Compound | IC50 (curve of compound) | viability, T/C (compound 0.00316 µM) | viability, T/C (compound 0.01 µM) | viability, T/C (compound 0.0316 µM) | viability, T/C (compound 0.1 µM) | viability, T/C (compound 0.316 µM) | viability, T/C (compound 1 µM) | viability, T/C (compound 3.16 µM) | viability, T/C (compound 10 µM) | also measured |
| --- | --- | --- | --- | --- | --- | --- | --- | --- | --- | --- |
| CC(=O)c1c(C)c2cnc(Nc3ccc(N4CCNCC4)cn3)nc2n(C2CCCC2)c1=O | > 0.1 µM | 97% [middle of 4 runs] | 99.2% [middle of 4 runs] | 108% [middle of 4 runs] | 88.7% [middle of 4 runs] |  |  |  |  | viability, T/C (compound 0.000316 µM): 91.8% [middle of 4 runs]; viability, T/C (compound 0.001 µM): 85.3% [middle of 4 runs] |
| CC(C)n1nc(-c2ccc3oc(N)nc3c2)c2c(N)ncnc21 | 11.9 nM [middle of 4 runs] | 78.9% [middle of 4 runs] | 53.9% [middle of 4 runs] | 24% [middle of 4 runs] | 3.78% [middle of 4 runs] |  |  |  |  | viability, T/C (compound 0.001 µM): 76.3% and 86.4% and 84.6% (2×) |
| CC(Nc1ccc2c(c1)OCCn1cc(N3C(=O)OCC3C(F)F)nc1-2)C(N)=O (stereo unspecified) |  | 94.1% [middle of 8 runs] | 83.8% [middle of 8 runs] | 56.6% [middle of 8 runs] | 40.9% [middle of 8 runs] | 28% [middle of 8 runs] | 21.4% [middle of 8 runs] |  |  | IC50 [1]: 52.5 nM [middle of 8 runs] |
| CC(Nc1ncnc2nc[nH]c12)c1cc2cccc(Cl)c2c(=O)n1-c1ccccc1 (stereo unspecified) |  |  |  | 90% [middle of 8 runs] | 97.5% [middle of 8 runs] | 99.2% [middle of 8 runs] | 100% [middle of 8 runs] | 87.8% [middle of 8 runs] | 59.8% [middle of 8 runs] | IC50 [2]: > 10 µM |
| CC1(C)CCC(CN2CCN(c3ccc(C(=O)NS(=O)(=O)c4ccc(NCC5CCOCC5)c([N+](=O)[O-])c4)c(Oc4cnc5[nH]ccc5c4)c3)CC2)=C(c2ccc(Cl)cc2)C1 |  |  |  | 90.2% [middle of 4 runs] | 87.8% [middle of 4 runs] |  | 86.9% [middle of 4 runs] | 63.4% [middle of 4 runs] |  |  |
| CCN1CCN(Cc2ccc(Nc3ncc(F)c(-c4cc(F)c5nc(C)n(C(C)C)c5c4)n3)nc2)CC1 | > 1 µM | 98.7% [middle of 4 runs] | 99.5% [middle of 4 runs] | 95.2% and 108% (2×) and 103% | 107% [middle of 4 runs] | 115% [middle of 4 runs] | 122% [middle of 4 runs] |  |  |  |
| CNC(=O)c1ccc(N2C(=S)N(c3ccc(C#N)c(C(F)(F)F)c3)C(=O)C2(C)C)cc1F | > 10 µM |  |  | 96.3% [middle of 4 runs] | 87.5% [middle of 4 runs] |  | 90.5% [middle of 4 runs] | 82.8% [middle of 4 runs] | 72% [middle of 4 runs] |  |
| COc1c(OCCCN2CCOCC2)ccc2c3n(c(=NC(=O)c4cnc(N)nc4)nc12)CCN3 |  | 69.1% [middle of 8 runs] | 46.5% [middle of 8 runs] | 25.6% [middle of 8 runs] | 7.84% [middle of 8 runs] | 1.95% [middle of 8 runs] | 1.25% [middle of 7 runs] |  |  | IC50 [2]: 8.74 nM [middle of 8 runs] |
| C[C@@H](NC(=O)c1ncnc(N)c1Cl)c1ncc(C(=O)Nc2cc(C(F)(F)F)c(Cl)cn2)s1 |  |  |  | 91.1% [middle of 4 runs] | 89.8% [middle of 4 runs] | 90.8% [middle of 4 runs] | 83.6% [middle of 4 runs] | 72.5% [middle of 4 runs] | 49.5% [middle of 4 runs] |  |
| Cc1nc(NC(=O)N2CCCC2C(N)=O)sc1-c1ccnc(C(C)(C)C(F)(F)F)c1 (stereo unspecified) |  |  |  | 89.2% [middle of 8 runs] | 86.3% [middle of 8 runs] | 57.4% [middle of 8 runs] | 33.8% [middle of 8 runs] | 14.5% [middle of 8 runs] | 3.58% [middle of 7 runs] | IC50 [1]: 475 nM [middle of 7 runs] |

Further lines, with some results ahead:

| IC50 (curve of compound) | Compound | viability, T/C (compound 0.00316 µM) | viability, T/C (compound 0.01 µM) | viability, T/C (compound 0.0316 µM) | viability, T/C (compound 0.1 µM) | viability, T/C (compound 0.316 µM) | viability, T/C (compound 1 µM) | viability, T/C (compound 3.16 µM) | viability, T/C (compound 10 µM) | also measured |
| --- | --- | --- | --- | --- | --- | --- | --- | --- | --- | --- |
| 376 nM [middle of 4 runs] | CC(C)NCC(C(=O)N1CCN(c2ncnc3c2C(C)CC3O)CC1)c1ccc(Cl)cc1 (stereo unspecified) |  |  | 85.8% [middle of 4 runs] | 76.4% [middle of 4 runs] | 57.3% (2×) and 54.7% and 53.9% | 27.4% [middle of 4 runs] | 17.1% [middle of 4 runs] | 9.96% [middle of 4 runs] |  |
| > 10 µM | CC(Cn1ccc(-c2ccc(C#N)c(Cl)c2)n1)NC(=O)c1cc(C(C)O)[nH]n1 (stereo unspecified) |  |  | 95.5% [middle of 4 runs] | 91.1% [middle of 4 runs] | 92.4% [middle of 4 runs] | 93.4% [middle of 4 runs] | 87.9% [middle of 4 runs] | 64.3% [middle of 4 runs] |  |
| 5.64 µM [middle of 4 runs] | CCCS(=O)(=O)Nc1ccc(F)c(C(=O)c2c[nH]c3ncc(-c4ccc(Cl)cc4)cc23)c1F |  |  | 91.5% [middle of 4 runs] | 91.1% [middle of 4 runs] | 101% (2×) and 103% and 90.9% | 99.5% [middle of 4 runs] | 89.8% [middle of 4 runs] | 16.1% [middle of 4 runs] |  |
| 653 nM [middle of 4 runs] | Cn1cnc2c(F)c(Nc3ccc(Br)cc3Cl)c(C(=O)NOCCO)cc21 |  |  |  |  |  |  |  |  | viability, T/C (compound 0.00949 µM): 90.4% [middle of 4 runs]; viability, T/C (compound 0.03 µM): 83.8% [middle of 4 runs]; viability, T/C (compound 0.0949 µM): 80.9% [middle of 4 runs]; viability, T/C (compound 0.3 µM): 64.1% [middle of 4 runs]; viability, T/C (compound 0.949 µM): 42.6% [middle of 4 runs]; viability, T/C (compound 3 µM): 19% [middle of 4 runs] |
| 502 nM [middle of 4 runs] | Cn1nccc1Nc1nccc(-c2ccn(C(CO)c3ccc(Cl)c(F)c3)c(=O)c2)n1 (stereo unspecified) |  |  | 93.8% [middle of 4 runs] | 84.3% [middle of 4 runs] | 57.5% [middle of 4 runs] | 37.7% [middle of 4 runs] | 26.1% [middle of 4 runs] | 20.1% and 21.8% and 21.4% (2×) |  |
| > 0.1 µM | Cn1ncnc1[C@H]1c2n[nH]c(=O)c3cc(F)cc(c23)N[C@@H]1c1ccc(F)cc1 | 97.5% [middle of 4 runs] | 98.2% [middle of 4 runs] | 97.7% [middle of 4 runs] | 87% [middle of 4 runs] |  |  |  |  | viability, T/C (compound 0.000316 µM): 92.5% [middle of 4 runs]; viability, T/C (compound 0.001 µM): 93.2% [middle of 4 runs] |
